According to patent US20250066359A1, “SOMATOSTATIN RECEPTOR SUBTYPE 5 ANTAGONISTS, AND PHARMACEUTICAL COMPOSITION AND USE THEREOF” (SHANGHAI INSTITUTE OF MATERIA MEDICA, CHINESE ACADEMY OF …, priority 2021, published 2025):

How the values were obtained:
hSSTR5 = target: T1, hSSTR5 (Homo sapiens, UniProt P35346); assay: SSTR5 antagonistic activity in vitro by calcium flow detection (hSSTR5-CHO-Gα16 cells); format: cell-based; conditions: for IC50: hSSTR5-CHO-Gα16 cells, 100 nM Somatostatin-14 agonist, Fluo-4 fluorescence 525 nm; for SSTR5 antagonistic activity (in words): summary of Table 1
T1 construct: expressed in transfected cells; host or cells: CHO cells co-expressing Gα16 (hSSTR5-CHO-Gα16)
T1 sequence (P35346 whole entry): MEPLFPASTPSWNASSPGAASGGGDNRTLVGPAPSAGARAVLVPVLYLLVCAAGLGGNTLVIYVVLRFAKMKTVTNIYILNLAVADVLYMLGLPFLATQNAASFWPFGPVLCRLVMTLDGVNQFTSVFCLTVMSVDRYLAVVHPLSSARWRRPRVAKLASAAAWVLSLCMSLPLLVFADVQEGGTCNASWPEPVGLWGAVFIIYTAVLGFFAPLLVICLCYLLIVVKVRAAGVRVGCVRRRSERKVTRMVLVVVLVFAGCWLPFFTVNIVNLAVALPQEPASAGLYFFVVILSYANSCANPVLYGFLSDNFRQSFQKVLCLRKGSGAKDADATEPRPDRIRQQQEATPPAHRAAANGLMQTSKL
Text: (§1) Testing SSTR5 antagonistic activity in vitro by Calcium flow detection method Experimental principle: After the receptor binds to the ligand and is activated, it can cause the activation of Gα16 protein, which further activates phospholipase C(PLC) to produce IP3 and DAG. IP3 can bind to the IP3 receptors on the endoplasmic reticulum and mitochondria in the cell, thereby causing the release of intracellular calcium. Therefore, measuring the changes in intracellular calcium can be used in the method to detect the activation state of hSSTR5. Fluo-4/AM is a calcium fluorescent probe indicator used to measure calcium ions. As a non-polar lipid-soluble compound, after it enters the cell, the AM group therein dissociates, and Fluo-4 is released under the action of cellular lipase; because Fluo-4 is a polar molecule and is not easy to pass through the lipid bilayer membrane, it can keep Fluo-4 in the cell fora longtime. Finally, the level of Ga protein activation can be reflected by measuring the intensity of the excited fluorescence. Somatostatin, an agonist of SSTR5, can activate SSTR5 receptors and greatly increase the calcium flow response. The SSTR5 antagonist to be tested can inhibit the agonist activity of the SSTR5 receptor and reduce the calcium increased flow response of the receptor stimulated by the agonist.
(§2) • (1) The hSSTR5-CHO-Gα16 and mSSTR5-CHO-Gα16 cell lines stably expressing hSSTR5 or mSSTR5 receptors were seeded at a density of 30,000/well in a 96-well plate and cultured in a 37° C. incubator overnight. • (2) The cells was aspirated off the culture medium, added with freshly prepared dye at 40 μL/well, and incubated in a 37° C. incubator for 45 minutes. • (3) After the dye was aspirated and discarded, the cells were washed with freshly prepared calcium buffer and the culture medium was replaced with 50 μL of calcium buffer. • (4) The SSTR5 agonist Somatostatin-14 was diluted and mixed evenly with calcium buffer. • (5) Detection was performed using a Flextation instrument. Starting from the 15th second, 25 μL of the pre-prepared agonist was automatically added by the instrument, and the fluorescence value at 525 nm was read.

mSSTR5 = target: T2, mSSTR5 (Mus musculus, UniProt O08858); assay: SSTR5 antagonistic activity in vitro by calcium flow detection (mSSTR5-CHO-Gα16 cells); format: cell-based; conditions: 100 nM Somatostatin-14 agonist, Fluo-4 fluorescence 525 nm
T2 construct: expressed in transfected cells; host or cells: CHO cells co-expressing Gα16 (mSSTR5-CHO-Gα16)
T2 sequence (O08858 1-362): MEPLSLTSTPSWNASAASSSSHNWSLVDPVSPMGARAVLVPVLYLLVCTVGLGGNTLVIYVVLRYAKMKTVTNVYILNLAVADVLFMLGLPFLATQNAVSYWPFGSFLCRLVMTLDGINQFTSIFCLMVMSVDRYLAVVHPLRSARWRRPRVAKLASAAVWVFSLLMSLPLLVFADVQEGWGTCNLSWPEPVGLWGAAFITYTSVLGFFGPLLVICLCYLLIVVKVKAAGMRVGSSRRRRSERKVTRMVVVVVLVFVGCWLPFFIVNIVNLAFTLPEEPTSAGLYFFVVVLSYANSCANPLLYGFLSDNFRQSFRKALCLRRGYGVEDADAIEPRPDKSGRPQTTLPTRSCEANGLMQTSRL
Text: as §1, §2

C57BL/6J mice = assay: Gallbladder emptying promotion experiment; format: in vivo, mouse; conditions: 30 mg/kg by gavage, egg yolk 1 h later, gallbladder removed after 15 min, versus control group, FIG. 2
Protocol: Experimental method: Before the experiment, 8-10 weeks old C57BL/6J mice were fasted for 17-18 hours and allowed to drink water freely. The mice were then divided into groups according to weight (n=4), and were gavaged with an aqueous solution of the compound prepared in Example 34 (30 mg/kg) or an equal volume of distilled water (control group), with a dosing volume of 10 mL/kg. At one hour after administration, 200 microliters of egg yolk were orally administered to the mice. After 15 minutes, the mice were killed by dislocation and dissected, and the gallbladder was removed and the bile was squeezed out and weighed with an analytical balance.

SSTR5 = assay: Calcium flow response to the SSTR5 agonist (choice of agonist concentration); format: cell-based; conditions: CHO-Gα16 cells expressing SSTR5, cell line (h or m) not stated
Text: as §1, with “agonist. […]” for “agonist.”

IC50 (hSSTR5) [nM] | SSTR5 antagonistic activity (in words) (hSSTR5) | IC50 (mSSTR5) [nM] | Compound | emptying of the mouse gallbladder (bile weight) (C57BL/6J mice) | EC50 (SSTR5) [nM]
0.1 to 50 | potent SSTR5 antagonistic activity | 0.1 to 50 | CCOc1cc(CN2CCC3(CC2)CN(c2ccc(C(=O)O)cc2F)C3)cc(OCC)c1-c1ccc(F)cc1 [Example 27, 4-(7-((2,6-diethoxy-4′-fluoro-[1,1′-biphenyl]-4-yl)methyl)-2,7-diazaspiro[3.5]nonan-2-yl)-3-fluorobenzoic acid] |  | 
0.1 to 50 | potent SSTR5 antagonistic activity | 0.1 to 50 | CCOc1cc(CN2CCC3(CC2)CN(c2ccc(C(=O)O)c(OC)c2)C3)cc(OCC)c1-c1ccc(F)cc1 [Example 28, 4-(7-((2,6-diethoxy-4′-fluoro-[1,1′-biphenyl]-4-yl)methyl)-2,7-diazaspiro[3.5]nonan-2-yl)-2-methoxybenzoic acid] |  | 
 |  |  | CCOc1cc(CN2CCC3(CC2)CN(c2ccc(C(=O)O)c(F)c2)C3)c(C2CC2)cc1C [Example 34, 4-(7-(2-cyclopropyl-5-ethoxy-4-methylbenzyl)-2,7-diazaspiro[3.5]nonan-2-yl)-2-fluorobenzoic acid] | significantly promote the emptying of the mouse gallbladder | 
 |  |  | Somatostatin-14 |  | 9.7
